Reference: EP4678638A1, “NEW E3 UBIQUITIN LIGASE LIGAND, PROTEIN DEGRADATION AGENT AND USE THEREOF” (priority 2023, dated 2024)

Key:
[1] = test system: EGFR; experiment: Western blot degradation of EGFR (H1975 Cell); assay type: cell-based, Human; conditions: Table D2
Description: Conventional Western blot assay was performed to evaluate the effects of the compounds of the present disclosure on the expression of target proteins in cells.
(1) Cell Seeding and Protein Harvesting: The selected cells were processed according to the cell seeding procedure and protein harvesting procedure in Table III-2. Table III-2 Cell Seeding and Protein Harvesting Procedures
(2) To the collected supernatant, 5X SDS sample loading buffer was added, followed by denaturation at 95°C for 5 minutes. The denatured samples were then separated by SDS-PAGE electrophoresis on a polyacrylamide gel. Proteins were transferred to a nitrocellulose membrane (0.45 µm NC membrane), blocked with blocking buffer at room temperature for 1 hour, and subjected to antibody incubation and development procedures according to the antibody manufacturer's instructions (Cell Signaling Technology).
Half-Maximal Degradation Concentration value (the drug concentration required for degrading proteins by 50%, abbreviated as DC50) reads method: comparing the grayscale values of Western blot bands from drug-treated samples with those from blank DMSO-treated controls, and identifying the drug concentration range at which the grayscale value is half that of the DMSO-treated control bands.
DC50 values can be calculated using ImageJ software to measure grayscale values of Western blot bands from drug-treated samples. The concentration-response curve is fitted to estimate the drug concentration corresponding to half the grayscale value.
Target protein remaining (%) refers to the percentage of target protein remaining in hPBMC cells after treatment with protein degrader compounds.
Calculation method for target protein remaining (%): Use ImageJ software to measure grayscale values of Western blot bands from drug (protein degrader)-treated samples. The grayscale value of drug-treated bands is divided by that of internal control protein bands, and the resulting quotient is normalized to obtain the relative percentage of remaining target protein after protein degrader treatment.
Target protein degradation rate (%) = 100% - target protein remaining (%).

[2] = test system: H1975; experiment: CCK-8 proliferation, NCI-H1975 (H1975); assay type: cell-based, Human; conditions: Homo sapiens, NCI-H1975; CCK-8; 96 hours; read-out: Inhibitory activity (IC50) on tumor cell proliferation, H1975
Method in brief: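 Cells seeded, then after 24 h treated with 10 concentrations (top 10 µM, 5-fold serial dilution) for a line-specific time at 37°C, 5% CO2. Viability read by CCK-8; IC50 fitted from growth-inhibition curves.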

Structure (SMILES) | IC50 [2] | Degradation of substrate protein EGFR (substrate protein remaining %) [1]
O=C1CCN(c2ccc(CN3CCN(C4CCN(c5ccc(-c6cc(F)c7c(c6)C(=O)N(C(C(=O)Nc6nccs6)c6ncn8c6CCC8)C7)cc5)CC4(F)F)CC3)nc2)C(=O)N1 (stereo not shown) [GT-06319, 2-(6,7-dihydro-5H-pyrrolo[1,2-c]imidazol-1-yl)-2-(6-(4-(4-(4-((5-(2,4-dioxotetrahydropyrimidin-1(2H)-yl)pyridin-2-yl)methyl)piperazin-1-yl)-3,3-difluoropiperidin-1-yl)phenyl)-4-fluoro-1-oxoisoindolin-2-yl)-N-(thiazol-2-yl)acetamide] | 1 to 10 nM | A (A is defined as 0% ≤ substrate protein remaining % ≤ 80%)
O=C1CCN(c2ccc(CN3CCN(C4CCN(c5ccc(-c6cc(F)c7c(c6)C(=O)N(C(C(=O)Nc6nccs6)c6ncn8c6CCC8)C7)cc5)CC4)CC3)cc2)C(=O)N1 (stereo not shown) [GT-06244, 2-(6,7-dihydro-5H-pyrrolo[1,2-c]imidazol-1-yl)-2-(6-(4-(4-(4-(4-(2,4-dioxotetrahydropyrimidin-1(2H)-yl)benzyl)piperazin-1-yl)piperidin-1-yl)phenyl)-4-fluoro-1-oxoisoindolin-2-yl)-N-(thiazol-2-yl)acetamide] | 1 to 10 nM | A (A is defined as 0% ≤ substrate protein remaining % ≤ 80%)
O=C1CCN(c2cccc(CN3CCN(c4ccc(-c5cc(F)c6c(c5)C(=O)N(C(C(=O)Nc5nccs5)c5ncn7c5CCC7)C6)cc4)CC3)c2)C(=O)N1 (stereo not shown) [GT-06165, 2-(6,7-dihydro-5H-pyrrolo[1,2-c]imidazol-1-yl)-2-(6-(4-(4-(3-(2,4-dioxotetrahydropyrimidin-1(2H)-yl)benzyl)piperazin-1-yl)phenyl)-4-fluoro-1-oxoisoindolin-2-yl)-N-(thiazol-2-yl)acetamide] | 1 to 10 nM | A (A is defined as 0% ≤ substrate protein remaining % ≤ 80%)
O=C1CCN(c2ccc(CN3CCC(N4CCN(c5ccc(-c6cc(F)c7c(c6)C(=O)N(C(C(=O)Nc6nccs6)c6ncn8c6CCC8)C7)cc5)CC4)CC3)cn2)C(=O)N1 (stereo not shown) [GT-06330, 2-(6,7-dihydro-5H-pyrrolo[1,2-c]imidazol-1-yl)-2-(6-(4-(4-(1-((6-(2,4-dioxotetrahydropyrimidin-1(2H)-yl)pyridin-3-yl)methyl)piperidin-4-yl)piperazin-1-yl)phenyl)-4-fluoro-1-oxoisoindolin-2-yl)-N-(thiazol-2-yl)acetamide] | 1 to 10 nM | A (A is defined as 0% ≤ substrate protein remaining % ≤ 80%)
O=C1CCC(Nc2cccc(CN3CCN(C4CCN(c5ccc(-c6cc(F)c7c(c6)C(=O)N(C(C(=O)Nc6nccs6)c6ncn8c6CCC8)C7)cc5)CC4(F)F)CC3)c2)C(=O)N1 (stereo not shown) [GT-06321, 2-(6,7-dihydro-5H-pyrrolo[1,2-c]imidazol-1-yl)-2-(6-(4-(4-(4-(3-((2,6-dioxopiperidin-3-yl)amino)benzyl)piperazin-1-yl)-3,3-difluoropiperidin-1-yl)phenyl)-4-fluoro-1-oxoisoindolin-2-yl)-N-(thiazol-2-yl)acetamide] | 10 to 50 nM | A (A is defined as 0% ≤ substrate protein remaining % ≤ 80%)
O=C1CCN(c2ccc(CN3CCN(c4ccc(-c5cc(F)c6c(c5)C(=O)N(C(C(=O)Nc5nccs5)c5ncn7c5CCC7)C6)cc4)CC3)cn2)C(=O)N1 (stereo not shown) [GT-06166, 2-(6,7-dihydro-5H-pyrrolo[1,2-c]imidazol-1-yl)-2-(6-(4-(4-((6-(2,4-dioxotetrahydropyrimidin-1(2H)-yl)pyridin-3-yl)methyl)piperazin-1-yl)phenyl)-4-fluoro-1-oxoisoindolin-2-yl)-N-(thiazol-2-yl)acetamide] | 1 to 10 nM | A (A is defined as 0% ≤ substrate protein remaining % ≤ 80%)
O=C1CCN(c2ccc(CN3CCN(c4ccc(-c5cc(F)c6c(c5)C(=O)N(C(C(=O)Nc5nccs5)c5ncn7c5CCC7)C6)cc4)CC3)nc2)C(=O)N1 (stereo not shown) [GT-06229, 2-(6,7-dihydro-5H-pyrrolo[1,2-c]imidazol-1-yl)-2-(6-(4-(4-((5-(2,4-dioxotetrahydropyrimidin-1(2H)-yl)pyridin-2-yl)methyl)piperazin-1-yl)phenyl)-4-fluoro-1-oxoisoindolin-2-yl)-N-(thiazol-2-yl)acetamide] | 1 to 10 nM | A (A is defined as 0% ≤ substrate protein remaining % ≤ 80%)
O=C1CCN(c2ccc(CN3CCC(N4CCN(c5ccc(-c6cc(F)c7c(c6)C(=O)N(C(C(=O)Nc6nccs6)c6ncn8c6CCC8)C7)cc5)CC4)CC3)nc2)C(=O)N1 (stereo not shown) [GT-06329, 2-(6,7-dihydro-5H-pyrrolo[1,2-c]imidazol-1-yl)-2-(6-(4-(4-(1-((5-(2,4-dioxotetrahydropyrimidin-1(2H)-yl)pyridin-2-yl)methyl)piperidin-4-yl)piperazin-1-yl)phenyl)-4-fluoro-1-oxoisoindolin-2-yl)-N-(thiazol-2-yl)acetamide] | 1 to 10 nM | A (A is defined as 0% ≤ substrate protein remaining % ≤ 80%)

The next lines start with results.

IC50 [2] | Structure (SMILES) | Degradation of substrate protein EGFR (substrate protein remaining %) [1]
1 to 10 nM | O=C1CCN(c2ccc(CN3C[C@H]4C[C@@H]3CN4c3ccc(-c4cc(F)c5c(c4)C(=O)N(C(C(=O)Nc4nccs4)c4ncn6c4CCC6)C5)cc3)cc2)C(=O)N1 (stereo partly drawn) [GT-06177, 2-(6,7-dihydro-5H-pyrrolo[1,2-c]imidazol-1-yl)-2-(6-(4-((1R,4R)-5-(4-(2,4-dioxotetrahydropyrimidin-1(2H)-yl)benzyl)-2,5-diazabicyclo[2.2.1]heptan-2-yl)phenyl)-4-fluoro-1-oxoisoindolin-2-yl)-N-(thiazol-2-yl)acetamide] | A (A is defined as 0% ≤ substrate protein remaining % ≤ 80%)
1 to 10 nM | O=C1CCC(c2ccc(CN3CCN(c4ccc(-c5cc(F)c6c(c5)C(=O)N(C(C(=O)Nc5nccs5)c5ncn7c5CCC7)C6)cc4)CC3)cc2)C(=O)N1 (stereo not shown) [GT-06163, 2-(6,7-dihydro-5H-pyrrolo[1,2-c]imidazol-1-yl)-2-(6-(4-(4-(4-(2,6-dioxopiperidin-3-yl)benzyl)piperazin-1-yl)phenyl)-4-fluoro-1-oxoisoindolin-2-yl)-N-(thiazol-2-yl)acetamide] | A (A is defined as 0% ≤ substrate protein remaining % ≤ 80%)
1 to 10 nM | O=C1CCC(c2cc(CN3C[C@H]4C[C@@H]3CN4c3ccc(-c4cc(F)c5c(c4)C(=O)N(C(C(=O)Nc4nccs4)c4ncn6c4CCC6)C5)cc3)ccn2)C(=O)N1 (stereo partly drawn) [GT-07390, 2-(6,7-dihydro-5H-pyrrolo[1,2-c]imidazol-1-yl)-2-(6-(4-((1R,4R)-5-((2-(2,6-dioxopiperidin-3-yl)pyridin-4-yl)methyl)-2,5-diazabicyclo[2.2.1]heptan-2-yl)phenyl)-4-fluoro-1-oxoisoindolin-2-yl)-N-(thiazol-2-yl)acetamide] | A (A is defined as 0% ≤ substrate protein remaining % ≤ 80%)
10 to 50 nM | O=C1CCN(c2cccc(CN3C[C@@H]4C[C@H]3CN4c3ccc(-c4cc(F)c5c(c4)C(=O)N(C(C(=O)Nc4nccs4)c4ncn6c4CCC6)C5)cc3)c2)C(=O)N1 (stereo partly drawn) [GT-05117, 2-(6,7-dihydro-5H-pyrrolo[1,2-c]imidazol-1-yl)-2-(6-(4-((1S,4S)-5-(3-(2,4-dioxotetrahydropyrimidin-1(2H)-yl)benzyl)-2,5-diazabicyclo[2.2.1]heptan-2-yl)phenyl)-4-fluoro-1-oxoisoindolin-2-yl)-N-(thiazol-2-yl)acetamide] | A (A is defined as 0% ≤ substrate protein remaining % ≤ 80%)
50 to 100 nM | O=C1CCC(Nc2cccc(CN3C[C@@H]4C[C@H]3CN4c3ccc(-c4cc(F)c5c(c4)C(=O)N(C(C(=O)Nc4nccs4)c4ncn6c4CCC6)C5)cc3)c2)C(=O)N1 (stereo partly drawn) [GT-05118, 2-(6,7-dihydro-5H-pyrrolo[1,2-c]imidazol-1-yl)-2-(6-(4-((1S,4S)-5-(3-((2,6-dioxopiperidin-3-yl)amino)benzyl)-2,5-diazabicyclo[2.2.1]heptan-2-yl)phenyl)-4-fluoro-1-oxoisoindolin-2-yl)-N-(thiazol-2-yl)acetamide] | A (A is defined as 0% ≤ substrate protein remaining % ≤ 80%)
1 to 10 nM | O=C1CCN(c2cncc(CN3C[C@H]4C[C@@H]3CN4c3ccc(-c4cc(F)c5c(c4)C(=O)N(C(C(=O)Nc4nccs4)c4ncn6c4CCC6)C5)cc3)c2)C(=O)N1 (stereo partly drawn) [GT-07388, 2-(6,7-dihydro-5H-pyrrolo[1,2-c]imidazol-1-yl)-2-(6-(4-((1R,4R)-5-((5-(2,4-dioxotetrahydropyrimidin-1(2H)-yl)pyridin-3-yl)methyl)-2,5-diazabicyclo[2.2.1]heptan-2-yl)phenyl)-4-fluoro-1-oxoisoindolin-2-yl)-N-(thiazol-2-yl)acetamide] | A (A is defined as 0% ≤ substrate protein remaining % ≤ 80%)
